This assay concerns CEM cells HIV-1 protection, formazan growth assay. Kind of assay: NCI AIDS Antiviral Assay. The settings on record: for IC50: measured here: growth of uninfected CEM cells. The procedure, abridged: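 Screen of anti-HIV-1 activity in human CEM cells using a formazan-based growth measurement at five drug concentrations. Hits with 50% or greater protection were repeated, and confirmation required reproducible complete protection.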

Structures are written as SMILES. Where “and” joins values, the source holds several entries; their conditions need not be identical. Identical values can stand only once. Calls of active or inactive are those of the source.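 How the source made its calls: active means compounds giving half or more protection of infected cells from virus-caused growth loss, again on retest; inactive means the rest.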

Turning to `C[N+](C)(C)CCCCCc1c2nc(c(CCCCC[N+](C)(C)C)c3ccc([nH]3)c(CCCCC[N+](C)(C)C)c3ccc([nH]3)c(CCCCC[N+](C)(C)C)c3nc1C=C3)C=C2`, the EC50 was more than 100 µM and the IC50 is 57.5 µM. In the case of `CC1(C)C(=O)N=C(N)N1C(=O)OCc1ccccc1`, the EC50 is more than 200 µM and the IC50 was more than 200 µM.

As to `CC(C)(C)OC(=O)N(CCCCNC(=O)c1ccccc1)CCCNC(=O)c1ccccc1`, the EC50 was more than 200 µM and the IC50 came out at 45.7 µM.

For `O=c1cnn2c(n1)sc1ccc3ccccc3c12`, the EC50 was more than 50.1 µM and the IC50 was more than 50.1 µM. With `O=Cc1ccccc1OCCOc1cc(OCCOc2ccccc2C=O)c(OCCOc2ccccc2C=O)cc1OCCOc1ccccc1C=O`, the EC50 was more than 1.41 µM and the IC50 is more than 1.41 µM. Consider `CN(c1c(Cl)cccc1Cl)S(=O)(=O)c1ccccc1[N+](=O)[O-]`, for which the EC50 was more than 200 µM and the IC50 is 66.1 µM.

For the molecule `CCCNC(=S)N/N=C/c1cccc(C)n1`, the EC50 was more than 200 µM and the IC50 worked out at 11 µM. The matching figures for `CSc1nnc(COc2ccc(Cl)cc2)o1`: more than 263 µM and more than 263 µM.

As to `Cc1ccc(S(=O)(=O)NC2C(=O)c3ccccc3C(=O)C2n2ccnc2)cc1` (stereo not given), the EC50 was more than 200 µM and the IC50 worked out at 87.1 µM.

With `NC(=O)c1ncn(CC2(COC(=O)c3ccccc3)CCC2)n1`, the EC50 was more than 200 µM and the IC50 was more than 200 µM.

For `O=C1C=C2CC3c4[nH]c5ccccc5c4CCN3CC2CC1` (stereo not given), the EC50 is more than 85.1 µM and the IC50 was 43.7 µM. The corresponding values for `O=C(Nc1ccccc1)c1cc(S(=O)(=O)n2cc[nH]c2=O)c(S)cc1Cl` are more than 200 µM and more than 200 µM.

Take `Cc1ccccc1NC(=O)C(=O)CC(=O)C1CCOC1=O` (stereo not given): the result was inactive. With `Cc1cc(C)c2cnnn2n1`, the EC50 is more than 1700 µM and the IC50 was more than 1700 µM. As to `Cn1c2ccccc2c2nnc(-n3nc(-c4ccc(Br)cc4)cc3N)nc21`, the EC50 is more than 200 µM and the IC50 is more than 200 µM. For `CC[n+]1c([S-])nn(C)c1-c1cnccn1`, the EC50 is more than 200 µM and the IC50 was more than 200 µM. With `C/C(=C\c1ccc(N(C)C)cc1)C(=O)O`, the EC50 is more than 66.1 µM and the IC50 is more than 66.1 µM.

On to `CC(=O)Nc1cc2cc(NS(=O)(=O)c3ccc(Cl)c(Cl)c3)ccc2oc1=O`, for which the EC50 was more than 47.9 µM and the IC50 was more than 47.9 µM. On to `O=C1C2CCCCC2C(=O)N1n1c(Cc2ccc(Cl)cc2)n[nH]c1=O` (stereo not given), for which the EC50 was more than 200 µM and the IC50 is more than 200 µM. Consider `CCC(CCCN)Nc1cc(OC)cc2cccnc12` (stereo not given), for which the EC50 was more than 200 µM and the IC50 was 6.31 µM. The corresponding values for `CCC(C)[C@@H](NCc1ccccc1)[C@H](OCc1ccccc1)[C@@H]1COC(C)(C)O1` (stereo not given in full) are more than 200 µM and 22.4 µM. Regarding `CC(C)OC1NC(=O)Oc2ccccc21` (stereo not given), the EC50 was more than 200 µM and the IC50 worked out at 132 µM. The matching figures for `COc1ccc(-c2nc3c(=O)n(C)c(=O)n(C)c3nc2-c2ccc(OC)cc2)cc1`: more than 200 µM and 195 µM. For the molecule `COC(=O)/C(C#N)=C\NC(=S)C(N)=S`, the EC50 was more than 200 µM and the IC50 was 11.2 µM. Turning to `C=CCCCC(C(=O)OCC)C(=O)OCC`, the result was inactive.

As for `O=C(NCP(=O)(Oc1ccccc1)Oc1ccccc1)OCc1ccccc1`, the EC50 is more than 200 µM and the IC50 amounted to 162 µM. Turning to `NNC(=O)CNC(=O)CSc1nnc(COc2ccc(Cl)cc2)n1-c1ccccc1`, the EC50 was more than 200 µM and the IC50 stood at 56.2 µM.

With `Cc1[nH]c(=O)nc(NCCNCCO)c1C(=O)Nc1cccc2cc3ccccc3cc12`, the EC50 was more than 200 µM and the IC50 is more than 200 µM.

In the case of `CCCOC(=O)C(C)(C)C(OP(OCCC)OCCC)=C(C)C`, the EC50 is more than 200 µM and the IC50 is more than 200 µM. Turning to `O=C(NCCCl)N(O)C(=O)Nc1ccccc1`, the EC50 was more than 200 µM and the 50% inhibitory concentration (IC50) amounted to 126 µM.

As for `COc1ccc(C2c3[nH]c4ccccc4c3CCN2O)cc1` (stereo not given), the outcome was inactive. As for `C=C=C(CCC(=O)c1ccccc1)S(=O)(=O)c1ccccc1`, the EC50 is more than 200 µM and the IC50 is 11 µM.

`O=C(C=Nc1ccccc1S)c1ccco1`: the outcome was inactive.

Regarding `CCOC(=O)c1nc2ccc(C(F)(F)F)cc2nc1Oc1ccc(OC)cc1`, the EC50 was more than 200 µM and the IC50 is more than 200 µM. `COc1ccc2c(c1)C(=O)CC=C(C(=O)O)N2`: the EC50 was more than 200 µM and the IC50 is more than 200 µM. Turning to `C=C1C2CCC3C(CCC4C35CCC[C@]4(C)CN3CCO[C@H]35)(C2)[C@@H]1O` (stereo not given in full), the result was inactive.

For `Cc1cccc2c1c(=O)c1c(O)cc3c(c1n2C)C=CC(C)(C)O3`, the EC50 is 32.4 µM and the IC50 was more than 200 µM.

In the case of `CC(C)(C)[Si](C)(C)OCC1OC(n2ccc(=O)[nH]c2=O)C(O[Si](C)(C)C(C)(C)C)C1C/C(N)=N/O` (stereo not given), the EC50 is more than 200 µM; the IC50 was 6.61 µM and 30.9 µM. With `C[N+](C)(C)C=Nc1cccc2c1CCCC2`, the EC50 is more than 200 µM. As for `CCCC(=O)c1ccc2c(ccc(=O)n2C)c1`, the EC50 is more than 112 µM and the IC50 came out at 102 µM. The matching figures for `COc1ccc(/C=C2\C(=O)N(C(=O)c3ccc(NC(C)=O)cc3)N=C2C)cc1OC`: more than 9.33 µM and more than 9.33 µM. In the case of `O=C(/C=C/c1cc(O)ccc1O)OCCc1ccccc1`, the EC50 was more than 45.7 µM and the IC50 turned out to be 6.17 µM. The matching figures for `O=C(O)CCN1c2ccccc2Sc2ccccc21`: more than 479 µM and 170 µM. Regarding `O=C1/C(=C\c2ccc(Br)cc2)CCCc2ccccc21`, the EC50 was more than 200 µM and the 50% inhibitory concentration (IC50) amounted to 22.4 µM.

As to `O=C(O)c1ccc(N=NC2Sc3nc4ccccc4n3C2=O)cc1` (stereo not given), the EC50 was more than 200 µM and the IC50 is more than 200 µM. Consider `COc1cc(-c2ccc(N=Nc3cc(S(=O)(=O)O)c4cccc(S(=O)(=O)O)c4c3N)c(OC)c2)ccc1N=Nc1cc(S(=O)(=O)O)c2cccc(S(=O)(=O)O)c2c1N`, for which the EC50 was 14.1 µM and the IC50 came out at 89.1 µM. As to `[N-]=[N+]=Nc1ccccc1Oc1ccccc1`, the EC50 is 58.9 µM and the IC50 is 89.1 µM. The corresponding values for `N#CC1=CNc2sccc2S1(=O)=O` are more than 200 µM and more than 200 µM. Turning to `COC(CNC(=O)NC(=O)CCC(=O)O)[CH2][Hg][n]1cnc2c1c(=O)n(C)c(=O)n2C` (stereo not given), the EC50 is more than 200 µM and the IC50 is 85.1 µM. On to `CC(=O)Oc1ccc(N2C(=O)C3c4[nH]c5ccccc5c4C4CCC(C(C)(C)C)CC4C3C2=O)cc1` (stereo not given), for which the EC50 is more than 200 µM and the IC50 was determined as 9.77 µM.

For the molecule `CC1(C)OC2OC(C(O)CO)C(OC(=S)SSC(=S)OC3C(C(O)CO)OC4OC(C)(C)OC43)C2O1` (stereo not given), the EC50 is more than 200 µM and the IC50 was found to be 36.3 µM. The matching figures for `Cc1cc(S(=O)(=O)Nc2n[nH]c(Nc3ccccc3)n2)c(SSc2cc(Cl)c(C)cc2S(=O)(=O)Nc2n[nH]c(Nc3ccccc3)n2)cc1Cl`: 83.2 µM and 95.5 µM. The matching figures for `O=c1[nH]c(=O)n(C2CC(F)C(CO)O2)cc1COCC(F)(F)F` (stereo not given): 0.17 µM and 204 µM. As to `N#C/C(C(=N)c1ccccc1)=C1\SS/C(=C(\C#N)C(=N)c2ccccc2)S1`, the EC50 is more than 200 µM and the IC50 is 6.03 µM. On to `[N-]=[N+]=NC1(c2ccccc2)C(=O)C(Cl)=C(c2ccccc2)N(c2ccccc2)C1=O` (stereo not given), for which the EC50 is more than 200 µM and the concentration for half-maximal inhibition (IC50) was determined as 126 µM.

Turning to `COc1ccc(Cc2nnc3nc(OC)c(-c4ccc(OC)cc4)n3n2)cc1`, the EC50 is more than 50.1 µM and the IC50 is more than 50.1 µM.

Consider `CC(C)N(C(=O)c1ccc([N+](=O)[O-])cc1)C(C)C`, for which the EC50 was more than 200 µM and the IC50 is more than 200 µM. As to `C(/C=N/NC1=NCCCN1)=N\NC1=NCCCN1`, the EC50 was 162 µM and the IC50 is more than 200 µM. For `CN(C)C(=O)NC(=S)N(C)C`, the result was inactive.

Turning to `NC(=O)Nc1ccc(C(=O)NCCCNC(=O)c2ccc(NC(N)=O)cc2)cc1`, the EC50 was more than 200 µM and the IC50 was more than 200 µM. Take `Cn1cnc(CCc2ccccc2)n1`: the EC50 was more than 1120 µM and the IC50 is more than 1120 µM.

In the case of `CCCC(=O)Oc1ccc2c(C)cc(=O)oc2c1OC(=O)CCC`, the EC50 is more than 200 µM and the IC50 came out at 77.6 µM.

Regarding `S=c1nnn(C2CCCN2)[nH]1` (stereo not given), the EC50 was more than 200 µM and the IC50 was more than 200 µM.

`C/C=C(/C)C(=O)O[C@H]1[C@H](O)CC(c2ccc3c(c2O)C(O)=C2C(=O)C4(OC)C(O)=C(C(N)=O)C(=O)[C@H](CC(=O)c5ccccc5O)C4CC2[C@@]3(C)OC)O[C@@H]1C` (stereo not given in full): the EC50 was more than 2 µM and the IC50 was 0.000631 µM. The corresponding values for `CCCCCCCCN(/N=C/c1c2c(O)c3c(O)c(C)c4c(c3c1O)C(=O)C(C)(O/C=C\C(OC)C(C)C(OC(C)=O)C(C)C(O)C(C)C(O)C(C)/C=C/C=C(C)C(=O)N2)O4)C12CC3CC(CC(C3)C1)C2` (stereo not given) are more than 200 µM and 8.91 µM. The matching figures for `CC(C)CC(NC(=O)C(CI)Cc1ccccc1)C(=O)Nc1ccccc1` (stereo not given): more than 100 µM and more than 100 µM. Consider `CSC1=NS(=O)(=O)c2cc(C(=O)NN(C)C(=O)c3cc4c(cc3Cl)SC(SC)=NS4(=O)=O)c(Cl)cc2S1`, for which the EC50 was more than 200 µM and the IC50 turned out to be 91.2 µM. With `O=[N+]([O-])c1cccc2nccc(NCCN3CCOCC3)c12`, the EC50 is more than 200 µM and the IC50 was found to be 10 µM. Consider `CC1CC[C@]2(C(=O)O)CCC3(C)C(=CC(=O)C4[C@@]5(C)CCC(=O)C(C)(C)C5CC[C@]43C)[C@@H]2[C@H]1C` (stereo not given in full), for which the outcome was inactive. For the molecule `COc1c2occc2c(OC(C)C(=O)O)c2c(O)cc(=O)oc12` (stereo not given), the EC50 is more than 282 µM and the IC50 was more than 282 µM. As for `O=C1CCCCC1C1(O)C(=O)Nc2cc(F)ccc21` (stereo not given), the EC50 was more than 955 µM and the IC50 worked out at 178 µM.

As to `BrC(Br)=C1C(=C(Br)Br)C(Br)C1Br` (stereo not given), the result was inactive.

The values above are taken from PubChem BioAssay AID179 (DTP/NCI, 2004).
